Measurements as given in EP2686338B1, “FUNCTIONALIZED BIOMATERIALS FOR TISSUE REGENERATION” (Nanomed3d S.r.l., priority 2011, dated 2018).
“Also recorded” adds a separate entry of the source. Residues, ends and D or L forms follow the SMILES beside them.

What was measured:
[1] = Rheology (frequency, time and strain sweeps); type: physicochemical; details: for G' pre-assembling: average storage modulus of SAPeptide solution, before PBS; for G' pre-assembling / G' post-assembling: 1-100 Hz; for G' post-assembling: average storage modulus of jellified scaffold, after PBS; for Onset point (% strain): strain percentage at rupture, strain sweep at 1 Hz, 25 C
Procedure: Rheological properties of the self-assembling peptides of the invention were determined using a controlled stress TA Instruments AR-2000ex rheometer (TA Instruments). A cone-and-plate geometry (acrylic cone diameter, 20 mm; angle, 1°; truncation gap 34 µm) was used. Preliminary strain sweeps were performed for each sample to define the linear viscoelastic region, thus ensuring that moduli were independent of strain. Time sweeps, after addition of PBS (1x) were recorded at 25 C (angular frequency ω=1 Hz) and continued till G' plateaued. Frequency sweeps, both for peptide water solutions and for self-assembled scaffolds, were performed at 25 C with the instrument in oscillatory mode at controlled strain of 1 %. Final strain sweeps was performed at 1Hz oscillatory frequency and at 25 C: onset point of failure was calculated by linear interpolation and subsequent determination of the intersection of the G' modes within the linear region and at material failure respectively.

murine NSCs [2] = experiment: Immunofluorescence of differentiated NSC progeny on scaffolds, murine NSCs; type: cell-based; details: for percentages of neurons (βIIITubulin positive cells): scaffolds of stiffness 100, 500 and 1000 Pa, best values, softer scaffolds; for differentiated neurons (βIIITubulin positive cells) versus scaffold stiffness: stiffness 100, 500 and 1000 Pa, P<0.05, P<0.01
Procedure: (§1) In vitro tests were performed as previously described (8), in order to assess whether the biomaterials (assembled hydrogels) obtained with the SAPs of the present invention influenced NSCs adhesion, survival and/or differentiation. SAPeptides (30 µl for each well at a concentration of 10 mg/ml) were assembled into 96 multiwells two hours before cell. Cells (at a concentration of 2x10^4 cells/cm^2) were seeded on the top-surface of each assembled scaffold. Initially, cells were cultured with basal medium supplemented with βFGF (10 ng/ml), added to enhance neuronal progeny differentiation. At 3 days in vitro (DIV), βFGF medium was replaced with Leukemia Inhibitory Factor (LIF, Chemicon) (20 ng/ml) and Brain Derived Neurotrophic Factor (BDNF, Peprotech) (20 ng/ml). Fresh medium was added every three days. For both viability and differentiation assays positive and negative controls consisted of Cultrex-BME® substrate (R&D systems) (1:100 dilution in basal medium) and untreated bottom well surfaces respectively. Cell viability was quantified via CellTiter 96® Aqueous Proliferation Assay (Promega) at 7 DIV as recommended in the Promega protocol. After calibrating the linear response between the cell number and absorbance values, proliferated cell populations were quantified (n=5) by using a Vmax microplate reader (Molecular Devices) at 490nm wavelength. Values, reported as means ± standard error of the mean, were blanked to their respective controls consisting of same substrates and cell culture media without cells.
Immunofluorescence tests were performed for assaying the phenotypes of the differentiated human and murine NSC progenies. In the case of KLP and Ac-KLP just murine NSC have been used. Ac-KLP and KLP scaffolds were prepared at different concentrations in order to display three different stiffness values (viz. 100, 500 and 1000 Pa). This was done to assess the influence of scaffold concentration (and consequently its stiffness) over NSC differentiation. All the other peptides were tested at 1% v/w concentration instead. The following antibodies were used: rabbit polyclonal against GFAP (1:500, DakoCytomation) for astrocytes, mouse monoclonal against βIII-Tubulin (1:500, Covance) for neurons, mouse monoclonal against GalC (1:200, Chemicon) and O4 (1:200, Chemicon) for oligodendrocyes. Secondary Abs were Goat anti Mouse Alexa 488 (1:1000, Molecular Probes), Goat anti Mouse Cy3 (1:1000, Jackson Immunoresearch), Goat anti Rabbit Cy3 (1:1000, Jackson Immunoresearch). Cell nuclei were counterstained with DAPI (Molecular Probes). Quantitative analyses were performed by counting 100-300 cells for each of 9 randomly chosen fields over a total of 3 independent experiments. Phase contrast and fluorescence images of the adhering cells were acquired via Zeiss microscopes Axioplan 2 and ApoTome System at one week after seeding.

murine NSCs [3] = experiment: Imaging and cell proliferation (MTS) assay on assembled scaffolds, murine NSCs; type: cell-based
Procedure: as §1

human NSCs = experiment: Imaging and cell proliferation (MTS) assay on assembled scaffolds, human NSCs; type: cell-based; details: 7 DIV; scaffolds 10 mg/ml; vs control, P<0.03, n=5
Procedure: as §1

| SMILES | G' and G" values at different concentrations ([1]; 1% w/v, 2% w/v and 3% w/v) | G' pre-assembling ([1]; 1% w/v) | G' post-assembling ([1]; 1% w/v) | Onset point (% strain) [1] | percentages of neurons (βIIITubulin positive cells) (murine NSCs [2]) | differentiated neurons (βIIITubulin positive cells) versus scaffold stiffness (murine NSCs [2]) | cell morphology, adhesion and spreading (murine NSCs [3]; 7 DIV on assembled hydrogels) | cell viability (MTS, cell population) (human NSCs) | cell viability (MTS, cell population) (murine NSCs [3]; 7 DIV, scaffolds 10 mg/ml, vs control, P<0.005, n=5) |
| --- | --- | --- | --- | --- | --- | --- | --- | --- | --- |
| CC(=O)N[C@@H](CCCCN)C(=O)N[C@@H](CC(C)C)C(=O)N1CCC[C@H]1C(=O)NCC(=O)N[C@@H](Cc1c[nH]c2ccccc12)C(=O)N[C@@H](CO)C(=O)NCC(=O)NCC(=O)NCC(=O)NCC(=O)N[C@@H](CC(C)C)C(=O)N[C@@H](CC(=O)O)C(=O)N[C@@H](CC(C)C)C(=O)N[C@@H](CCCCN)C(=O)N[C@@H](CC(C)C)C(=O)N[C@@H](CC(=O)O)C(=O)N[C@@H](CC(C)C)C(=O)N[C@@H](CCCCN)C(=O)N[C@@H](CC(C)C)C(=O)N[C@@H](CC(=O)O)C(=O)N[C@@H](CC(C)C)C(=O)N[C@@H](CCCCN)C(N)=O [Ac-KLP, Ac-KLPGWSG-GGG-LDLKLDLKLDLK-CONH2] (Ac-KLPGWSGGGGLDLKLDLKLDLK-NH2) | increased with concentration increments | 2.88 Pa | 91.2 Pa | 47.82% | above 50% | significant increments of differentiated neurons |  |  |  |
| CC(=O)N[C@@H](CCC(N)=O)C(=O)N[C@@H](Cc1c[nH]cn1)C(=O)N[C@@H](CC(C)C)C(=O)N1CCC[C@H]1C(=O)N[C@@H](CCCNC(=N)N)C(=O)N[C@@H](CC(=O)O)C(=O)N[C@@H](Cc1c[nH]cn1)C(=O)NCC(=O)NCC(=O)NCC(=O)N[C@@H](CC(C)C)C(=O)N[C@@H](CC(=O)O)C(=O)N[C@@H](CC(C)C)C(=O)N[C@@H](CCCCN)C(=O)N[C@@H](CC(C)C)C(=O)N[C@@H](CC(=O)O)C(=O)N[C@@H](CC(C)C)C(=O)N[C@@H](CCCCN)C(=O)N[C@@H](CC(C)C)C(=O)N[C@@H](CC(=O)O)C(=O)N[C@@H](CC(C)C)C(=O)N[C@@H](CCCCN)C(N)=O [Ac-QHL, Ac-QHLPRDH-GGG-LDLKLDLKLDLK-CONH2] (Ac-QHLPRDHGGGLDLKLDLKLDLK-NH2) |  | 2.68 Pa | 166.7 Pa | 10.16% |  |  |  |  |  |
| CC(=O)N[C@@H](CO)C(=O)N[C@@H](CO)C(=O)N[C@@H](CC(C)C)C(=O)N[C@@H](CO)C(=O)N[C@H](C(=O)N[C@@H](CC(N)=O)C(=O)N[C@@H](CC(=O)O)C(=O)NCC(=O)NCC(=O)NCC(=O)N[C@@H](CC(C)C)C(=O)N[C@@H](CC(=O)O)C(=O)N[C@@H](CC(C)C)C(=O)N[C@@H](CCCCN)C(=O)N[C@@H](CC(C)C)C(=O)N[C@@H](CC(=O)O)C(=O)N[C@@H](CC(C)C)C(=O)N[C@@H](CCCCN)C(=O)N[C@@H](CC(C)C)C(=O)N[C@@H](CC(=O)O)C(=O)N[C@@H](CC(C)C)C(=O)N[C@@H](CCCCN)C(N)=O)C(C)C [Ac-SSL, Ac-SSLSVND-GGG-LDLKLDLKLDLK-CONH2] (Ac-SSLSVNDGGGLDLKLDLKLDLK-NH2) |  | 6.72 Pa | 267.3 Pa | 26.12% |  |  |  |  |  |
| CC(C)C[C@H](NC(=O)CNC(=O)CNC(=O)CNC(=O)CNC(=O)[C@H](CO)NC(=O)[C@H](Cc1c[nH]c2ccccc12)NC(=O)CNC(=O)[C@@H]1CCCN1C(=O)[C@H](CC(C)C)NC(=O)[C@@H](N)CCCCN)C(=O)N[C@@H](CC(=O)O)C(=O)N[C@@H](CC(C)C)C(=O)N[C@@H](CCCCN)C(=O)N[C@@H](CC(C)C)C(=O)N[C@@H](CC(=O)O)C(=O)N[C@@H](CC(C)C)C(=O)N[C@@H](CCCCN)C(=O)N[C@@H](CC(C)C)C(=O)N[C@@H](CC(=O)O)C(=O)N[C@@H](CC(C)C)C(=O)N[C@@H](CCCCN)C(N)=O [KLP, NH2-KLPGWSG-GGG-LDLKLDLKLDLK-CONH2] (H-KLPGWSGGGGLDLKLDLKLDLK-NH2) |  | 3.30 Pa | 51.38 Pa | 56.46% | above 50% | significant increments of differentiated neurons | fostered NSCs adhesion and spreading similarly to FAQ |  |  |
| CC(C)C[C@H](NC(=O)CNC(=O)CNC(=O)CNC(=O)[C@H](Cc1c[nH]cn1)NC(=O)[C@H](CC(=O)O)NC(=O)[C@H](CCCNC(=N)N)NC(=O)[C@@H]1CCCN1C(=O)[C@H](CC(C)C)NC(=O)[C@H](Cc1c[nH]cn1)NC(=O)[C@@H](N)CCC(N)=O)C(=O)N[C@@H](CC(=O)O)C(=O)N[C@@H](CC(C)C)C(=O)N[C@@H](CCCCN)C(=O)N[C@@H](CC(C)C)C(=O)N[C@@H](CC(=O)O)C(=O)N[C@@H](CC(C)C)C(=O)N[C@@H](CCCCN)C(=O)N[C@@H](CC(C)C)C(=O)N[C@@H](CC(=O)O)C(=O)N[C@@H](CC(C)C)C(=O)N[C@@H](CCCCN)C(N)=O [QHL, NH2-QHLPRDH-GGG-LDLKLDLKLDLK-CONH2] (H-QHLPRDHGGGLDLKLDLKLDLK-NH2) |  | 4.53 Pa | 296.9 Pa | 28.58% |  |  |  | significantly fostered cell viability; also recorded: significantly favored | significantly fostered cell viability; also recorded: significantly favored |
| CC(C)C[C@H](NC(=O)CNC(=O)CNC(=O)CNC(=O)[C@H](CC(=O)O)NC(=O)[C@H](CC(N)=O)NC(=O)[C@@H](NC(=O)[C@H](CO)NC(=O)[C@H](CC(C)C)NC(=O)[C@H](CO)NC(=O)[C@@H](N)CO)C(C)C)C(=O)N[C@@H](CC(=O)O)C(=O)N[C@@H](CC(C)C)C(=O)N[C@@H](CCCCN)C(=O)N[C@@H](CC(C)C)C(=O)N[C@@H](CC(=O)O)C(=O)N[C@@H](CC(C)C)C(=O)N[C@@H](CCCCN)C(=O)N[C@@H](CC(C)C)C(=O)N[C@@H](CC(=O)O)C(=O)N[C@@H](CC(C)C)C(=O)N[C@@H](CCCCN)C(N)=O [SSL, NH2-SSLSVND-GGG-LDLKLDLKLDLK-CONH2] (H-SSLSVNDGGGLDLKLDLKLDLK-NH2) |  | 9.01 Pa | 124.7 Pa | 17.78% |  |  |  |  |  |
